Earlier results as cited in PMC4610172, “5-Arylaminouracil Derivatives as Potential Dual-Action Agents” (Acta Naturae, 2015).

Test system: MS-115 strain with multiple-drug resistance
Conditions: MS-115 resistant to isoniazid, rifampicin, streptomycin, ethambutol, pyrazinamide; cited from earlier work

Q: For `CCCCOc1ccc(Nc2cn(C3C=CC(O)C3)c(=O)n(C3C=CC(O)C3)c2=O)cc1` (stereo not shown) [Compound 19], which “Activity against MS-115 strain relative to sensitive H37Rv laboratory strain” value is on record?
A: The value was “higher activity against the MS-115 strain”.
